Experimental data as given in US20240316022A1 (TYRA BIOSCIENCES, INC., priority 2021, published 2024).

Columns and labels:
FGFR1 = target: T1, FGFR1 (Homo sapiens, UniProt P11362); experiment: Kinase binding assay (kinase-tagged T7 phage, qPCR), Kd; conditions: read-out: FGFR1 (Kd nM)
T1 construct: made in house; host or cells: E. coli derived from BL21, infected with T7 phage

FGFR2 = target: T2, FGFR2 (Homo sapiens, UniProt P21802); experiment: as above; conditions: read-out: FGFR2 (Kd nM)
T2 construct: made in house; host or cells: E. coli derived from BL21, infected with T7 phage
T2 sequence (P21802 22-821): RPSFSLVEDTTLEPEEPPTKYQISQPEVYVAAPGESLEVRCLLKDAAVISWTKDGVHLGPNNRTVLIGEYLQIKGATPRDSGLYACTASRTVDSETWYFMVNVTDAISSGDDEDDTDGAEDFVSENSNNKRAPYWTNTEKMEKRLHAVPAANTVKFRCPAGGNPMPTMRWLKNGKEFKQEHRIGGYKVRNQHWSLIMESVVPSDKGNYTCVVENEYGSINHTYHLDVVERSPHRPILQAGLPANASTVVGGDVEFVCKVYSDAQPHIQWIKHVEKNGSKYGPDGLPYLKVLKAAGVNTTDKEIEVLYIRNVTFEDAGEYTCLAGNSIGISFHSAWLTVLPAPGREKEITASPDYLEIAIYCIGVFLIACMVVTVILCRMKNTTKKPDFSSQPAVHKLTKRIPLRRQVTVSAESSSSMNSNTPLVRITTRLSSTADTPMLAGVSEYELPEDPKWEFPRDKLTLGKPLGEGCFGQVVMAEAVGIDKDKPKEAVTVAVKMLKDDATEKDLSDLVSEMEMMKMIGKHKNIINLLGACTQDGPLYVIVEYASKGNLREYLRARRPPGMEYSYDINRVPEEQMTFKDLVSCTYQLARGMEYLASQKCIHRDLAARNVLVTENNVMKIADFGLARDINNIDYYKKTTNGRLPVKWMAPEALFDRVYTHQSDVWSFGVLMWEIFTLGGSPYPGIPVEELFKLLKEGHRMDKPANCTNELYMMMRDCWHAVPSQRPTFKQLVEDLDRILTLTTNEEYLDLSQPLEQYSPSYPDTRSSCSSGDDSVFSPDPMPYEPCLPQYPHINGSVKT

FGFR3 = target: T3, FGFR3 (Homo sapiens, UniProt P22607); experiment: as above; conditions: read-out: FGFR3 (Kd nM)
T3 construct: made in house; host or cells: E. coli derived from BL21, infected with T7 phage
T3 sequence (P22607 23-806): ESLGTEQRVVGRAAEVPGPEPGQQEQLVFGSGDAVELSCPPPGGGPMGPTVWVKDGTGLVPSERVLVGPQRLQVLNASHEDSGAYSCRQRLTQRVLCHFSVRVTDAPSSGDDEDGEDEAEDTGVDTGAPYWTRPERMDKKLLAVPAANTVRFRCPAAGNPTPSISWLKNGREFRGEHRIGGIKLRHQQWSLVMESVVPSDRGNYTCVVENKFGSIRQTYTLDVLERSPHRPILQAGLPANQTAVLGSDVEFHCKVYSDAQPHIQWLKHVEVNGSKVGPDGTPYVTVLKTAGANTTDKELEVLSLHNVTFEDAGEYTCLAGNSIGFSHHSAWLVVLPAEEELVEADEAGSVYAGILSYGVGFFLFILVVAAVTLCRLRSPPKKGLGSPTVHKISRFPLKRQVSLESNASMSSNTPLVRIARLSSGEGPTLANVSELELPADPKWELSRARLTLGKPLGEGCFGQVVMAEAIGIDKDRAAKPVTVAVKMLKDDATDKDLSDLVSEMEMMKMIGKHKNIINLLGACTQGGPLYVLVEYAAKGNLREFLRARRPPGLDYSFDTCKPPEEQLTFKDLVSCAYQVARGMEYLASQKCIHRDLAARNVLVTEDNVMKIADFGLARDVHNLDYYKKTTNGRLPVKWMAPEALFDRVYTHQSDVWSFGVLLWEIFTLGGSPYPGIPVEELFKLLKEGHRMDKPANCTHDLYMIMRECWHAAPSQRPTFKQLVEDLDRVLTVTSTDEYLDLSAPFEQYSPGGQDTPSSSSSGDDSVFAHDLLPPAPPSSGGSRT

FGFR4 = target: T4, FGFR4 (Homo sapiens, UniProt P22455); experiment: as above; conditions: read-out: FGFR4 (Kd nM)
T4 construct: made in house; host or cells: E. coli derived from BL21, infected with T7 phage
T4 sequence (P22455 22-802): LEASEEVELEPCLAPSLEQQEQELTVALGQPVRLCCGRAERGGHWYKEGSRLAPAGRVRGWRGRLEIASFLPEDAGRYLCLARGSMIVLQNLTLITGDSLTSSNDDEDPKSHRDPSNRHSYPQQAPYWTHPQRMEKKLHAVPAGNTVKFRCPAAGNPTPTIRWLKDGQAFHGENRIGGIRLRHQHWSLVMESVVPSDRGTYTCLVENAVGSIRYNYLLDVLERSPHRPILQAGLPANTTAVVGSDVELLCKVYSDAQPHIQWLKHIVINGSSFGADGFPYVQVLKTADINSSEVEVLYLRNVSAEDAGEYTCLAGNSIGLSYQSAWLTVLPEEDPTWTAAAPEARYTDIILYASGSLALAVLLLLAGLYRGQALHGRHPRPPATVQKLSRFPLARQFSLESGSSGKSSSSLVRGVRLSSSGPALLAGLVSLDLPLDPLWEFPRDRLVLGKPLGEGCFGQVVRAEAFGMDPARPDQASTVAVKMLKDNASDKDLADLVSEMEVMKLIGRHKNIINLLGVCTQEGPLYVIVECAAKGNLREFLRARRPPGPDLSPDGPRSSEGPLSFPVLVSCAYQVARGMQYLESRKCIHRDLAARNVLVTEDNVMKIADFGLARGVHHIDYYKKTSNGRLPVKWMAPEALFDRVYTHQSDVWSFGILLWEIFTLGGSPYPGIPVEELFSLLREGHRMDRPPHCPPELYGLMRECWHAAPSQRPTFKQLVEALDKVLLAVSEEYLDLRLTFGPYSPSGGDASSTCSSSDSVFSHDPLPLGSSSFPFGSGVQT

BCR-FGFR1 Ba/F3 = target: T5, BCR-FGFR1 Ba/F3 (Homo sapiens, UniProt P11362); experiment: Ba/F3 cell viability assay (CellTiter-Glo 2.0); assay type: cell-based; conditions: Ba/F3 BCR-FGFR1 cells, 48 hours
T5 construct: host or cells: Ba/F3; the other entry of the earlier key: BCR (P11274, Breakpoint cluster region protein)
T5 sequence (P11362 478-767 limits assumed): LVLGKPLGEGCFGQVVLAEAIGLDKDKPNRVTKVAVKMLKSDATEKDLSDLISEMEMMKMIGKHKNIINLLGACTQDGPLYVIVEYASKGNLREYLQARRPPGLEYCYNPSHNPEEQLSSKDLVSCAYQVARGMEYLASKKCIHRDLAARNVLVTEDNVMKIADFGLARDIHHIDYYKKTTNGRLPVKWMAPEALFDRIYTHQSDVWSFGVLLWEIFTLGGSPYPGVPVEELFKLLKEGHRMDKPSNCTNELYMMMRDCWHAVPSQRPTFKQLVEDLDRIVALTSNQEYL
From the text: (§1) Experimental Purpose: Recombinant kinase fusions are transduced into parental Ba/F3, which becomes dependent upon this constitutive kinase activity for IL3-independent survival. Inhibition of kinase activity leads to cell death, which is monitored using CellTiter-Glo® 2.0 (Promega) which measures intracellular ATP concentration that in turn serves as a marker for viability. BCR-FGFR4 Ba/F3, BCR-FGFR1 Ba/F3 and FGFR3-BAIAP2L1 Ba/F3 were obtained from Advanced Cellular Dynamics (Seattle, WA)
(§2) Cell Viability Assay Procedure: Cell Titer-Glo® 2.0 Luminescent cell viability assay reagent was purchased from Promega (Madison, WI). BCR-FGFR4 Ba/F3, BCR-FGFR1 Ba/F3 and FGFR3-BAIAP2L1 Ba/F3 cells were cultured in RPMI1640 media supplemented with 10% fetal bovine serum. Cultures were maintained at 37° C. in a humidified atmosphere of 5% CO2 and 95% air.
(§3) Cells were plated in 96-well clear bottom/white plates (Corning #3903) at 10,000 cells/well in 100 μl of media, incubated overnight. The next day, test compound DMSO stock solutions were made at 10 mM and 2 μM final concentration. Compounds were then added to cells in a 9-dose, 10-fold dilution series starting at 30 μM with an HP 300e Digital Dispenser (each dose was applied in triplicate). DMSO was backfilled to each well up to 301 nL total volume of test compound+DMSO, and a total of 301 nL DMSO was added to a control/no test compound well in triplicate. The cells in cell culture plates were incubated with the compounds at 37° C. and 5% CO2 for 48 hours. Then 50 μl of Cell Titer Glo 2.0 reagent was added to each well of the cell culture plates. The contents were covered from light and mixed on an orbital shaker at room temperature for 10 min. Luminescence was recorded by a Synergy H1 Microplate Reader (Biotek, Winooski, VT). Cells were assessed as a percentage of DMSO only treated control cells. Curves were plotted and IC50 values were calculated using the GraphPad Prism 8 program based on a sigmoidal dose-response equation (4 parameter).

FGFR3-BAIAP2L1 Ba/F3 = target: T6, FGFR3-BAIAP2L1 Ba/F3 (Homo sapiens, UniProt P22607); experiment: Ba/F3 cell viability assay (CellTiter-Glo 2.0); assay type: cell-based; conditions: Ba/F3 FGFR3-BAIAP2L1 cells, 48 hours
T6 construct: host or cells: Ba/F3; the other entry of the earlier key: BAIAP2L1 (Q9UHR4, BAR/IMD domain-containing adapter protein 2-like 1)
T6 sequence (P22607 397-758 limits assumed): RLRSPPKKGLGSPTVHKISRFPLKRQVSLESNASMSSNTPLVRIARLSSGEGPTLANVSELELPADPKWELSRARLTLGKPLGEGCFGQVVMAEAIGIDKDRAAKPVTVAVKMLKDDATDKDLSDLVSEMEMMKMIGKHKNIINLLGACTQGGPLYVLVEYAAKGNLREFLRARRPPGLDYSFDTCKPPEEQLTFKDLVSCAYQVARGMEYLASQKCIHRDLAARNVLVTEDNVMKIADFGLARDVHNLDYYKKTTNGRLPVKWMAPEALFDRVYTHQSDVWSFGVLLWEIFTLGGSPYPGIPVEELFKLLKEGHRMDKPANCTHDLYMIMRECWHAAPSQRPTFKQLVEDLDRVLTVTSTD
From the text: as §1, §2, §3

T1 sequence (P11362 22-822): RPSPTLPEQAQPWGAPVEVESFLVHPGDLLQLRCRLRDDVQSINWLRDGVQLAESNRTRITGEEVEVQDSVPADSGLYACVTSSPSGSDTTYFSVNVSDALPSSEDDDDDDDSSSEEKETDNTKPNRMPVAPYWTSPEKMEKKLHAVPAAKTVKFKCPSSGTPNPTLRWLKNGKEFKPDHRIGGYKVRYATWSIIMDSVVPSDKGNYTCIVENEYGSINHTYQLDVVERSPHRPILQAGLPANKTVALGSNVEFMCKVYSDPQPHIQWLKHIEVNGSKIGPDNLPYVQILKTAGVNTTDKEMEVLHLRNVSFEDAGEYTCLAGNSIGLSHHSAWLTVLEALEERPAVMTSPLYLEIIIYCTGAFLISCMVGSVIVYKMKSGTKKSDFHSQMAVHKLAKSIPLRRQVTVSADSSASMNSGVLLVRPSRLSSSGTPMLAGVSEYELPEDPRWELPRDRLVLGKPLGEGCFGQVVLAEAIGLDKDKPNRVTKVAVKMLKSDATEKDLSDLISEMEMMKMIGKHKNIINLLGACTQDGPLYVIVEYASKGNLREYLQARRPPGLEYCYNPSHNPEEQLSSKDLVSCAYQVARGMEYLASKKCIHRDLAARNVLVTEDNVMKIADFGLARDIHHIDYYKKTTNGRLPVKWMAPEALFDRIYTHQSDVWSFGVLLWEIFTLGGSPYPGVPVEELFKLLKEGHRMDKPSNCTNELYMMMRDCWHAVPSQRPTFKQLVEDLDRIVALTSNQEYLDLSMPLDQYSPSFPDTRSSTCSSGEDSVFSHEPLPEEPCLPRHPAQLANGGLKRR

SMILES | Kd (FGFR1) [nM] | Kd (FGFR2) [nM] | Kd (FGFR3) [nM] | Kd (FGFR4) [nM] | IC50 (BCR-FGFR1 Ba/F3) [nM] | IC50 (FGFR3-BAIAP2L1 Ba/F3) [nM]
COc1c(F)cc(-c2n[nH]c3ccc(O[C@H](C)c4c(C)cnnc4C)cc23)cc1C#N [Example 82, 5-[5-[(1R)-1-(3,5-dimethylpyridazin-4-yl)ethoxy]-1H-indazol-3-yl]-3-fluoro-2-methoxy-benzonitrile] | 100 to 250 | 100 to 250 | 0.1 to 100 | 0.1 to 100 | – | 100 to 250
CCN1CCC2(CC1)OCc1cc(-c3n[nH]c4ccc(O[C@H](C)c5c(Cl)cncc5Cl)cc34)ccc1O2 [Example 96, (R)-6-(5-(1-(3,5-Dichloropyridin-4-yl)ethoxy)-1H-indazol-3-yl)-1′-ethyl-4H-spiro[benzo[d][1,3]dioxine-2,4′-piperidine]] | 0.1 to 100 | 0.1 to 100 | 0.1 to 100 | 0.1 to 100 | 100 to 250 | 0.1 to 100
CCN1CCC2(CC1)OCc1cc(-c3n[nH]c4ccc(O[C@H](C)c5c(C)cnnc5C)cc34)ccc1O2 [Example 106, (R)-6-(5-(1-(3,5-dimethylpyridazin-4-yl)ethoxy)-1H-indazol-3-yl)-1′-ethyl-4H-spiro[benzo[d][1,3]dioxine-2,4′-piperidine]] | 0.1 to 100 | 0.1 to 100 | 0.1 to 100 | 0.1 to 100 | 0.1 to 100 | 0.1 to 100
Cc1ncc(Cl)c([C@@H](C)Oc2cc3c(-c4cnc5c(c4)N(S(C)(=O)=O)CCO5)n[nH]c3cc2Cl)c1Cl [Example 143, 7-[6-chloro-5-[(1R)-1-(3,5-dichloro-2-methyl-4-pyridyl)ethoxy]-1H-indazol-3-yl]-1-methylsulfonyl-2,3-dihydropyrido[2,3-b][1,4]oxazine] | > 1000 | > 1000 | 100 to 250 | 100 to 250 | – | –
CCS(=O)(=O)N1CCOc2ncc(-c3n[nH]c4ccc(O[C@H](C)c5c(Cl)cncc5Cl)cc34)cc21 [Example 144] | > 1000 | > 1000 | > 1000 | 0.1 to 100 | – | –
C[C@@H](Oc1cc2c(-c3cnc4c(c3)N(S(C)(=O)=O)CCO4)n[nH]c2cc1Cl)c1c(Cl)cncc1Cl [Example 145, 7-[6-chloro-5-[(1R)-1-(3,5-dichloro-4-pyridyl)ethoxy]-1H-indazol-3-yl]-1-methylsulfonyl-2,3-dihydropyrido[2,3-b][1,4]oxazine] | > 1000 | > 1000 | > 1000 | 0.1 to 100 | – | –
COc1cc2[nH]nc(-c3cnc4c(c3)NCCO4)c2cc1O[C@H](C)c1c(Cl)cncc1Cl [Example 146] | 0.1 to 100 | 0.1 to 100 | 0.1 to 100 | 0.1 to 100 | – | –
COc1cc2[nH]nc(-c3ccc(N(C)C)nc3)c2cc1O[C@H](C)c1c(Cl)cnc(C)c1Cl [Example 149, 5-[5-[(1R)-1-(3,5-dichloro-2-methyl-4-pyridyl)ethoxy]-6-methoxy-1H-indazol-3-yl]-N,N-dimethyl-pyridin-2-amine] | 0.1 to 100 | 0.1 to 100 | 0.1 to 100 | 0.1 to 100 | – | –
Cc1cc(-c2n[nH]c3ccc(O[C@H](C)c4c(Cl)cnc(C)c4Cl)cc23)cnc1O[C@H]1CCOC1 [Example 154, 5-[(1R)-1-(3,5-dichloro-2-methyl-4-pyridyl)ethoxy]-3-[5-methyl-6-[(3S)-tetrahydrofuran-3-yl]oxy-3-pyridyl]-1H-indazole] | 250 to 1000 | 250 to 1000 | 0.1 to 100 | 0.1 to 100 | – | –
C[C@@H](Oc1ccc2[nH]nc(-c3ccc(OC4CC5(COC5)C4)nc3)c2c1)c1c(Cl)cncc1Cl [Example 161, (R)-3-(6-(2-oxaspiro[3.3]heptan-6-yloxy)pyridin-3-yl)-5-(1-(3,5-dichloropyridin-4-yl)ethoxy)-1H-indazole] | 0.1 to 100 | 0.1 to 100 | 0.1 to 100 | 0.1 to 100 | – | –
Cc1ncc(Cl)c([C@@H](C)Oc2ccc3[nH]nc(-c4ccc5c(c4)COC4(CCN(CC(F)(F)F)CC4)O5)c3c2)c1Cl [Example 167, 6-[5-[(1R)-1-(3,5-dichloro-2-methyl-4-pyridyl)ethoxy]-1H-indazol-3-yl]-1′-(2,2,2-trifluoroethyl)spiro[4H-1,3-benzodioxine-2,4′-piperidine]] | 100 to 250 | 100 to 250 | 0.1 to 100 | 0.1 to 100 | – | –
C[C@@H](Oc1ccc2[nH]nc(-c3ccc4c(c3)COC3(CCN(CC(F)F)CC3)O4)c2c1)c1c(Cl)cncc1Cl [Example 168, 6-[5-[(1R)-1-(3,5-dichloro-4-pyridyl)ethoxy]-1H-indazol-3-yl]-1′-(2,2-difluoroethyl)spiro[4H-1,3-benzodioxine-2,4′-piperidine]] | 0.1 to 100 | 0.1 to 100 | 0.1 to 100 | 0.1 to 100 | – | –

Further lines, with some results ahead:

Kd (FGFR1) [nM] | Kd (FGFR2) [nM] | Kd (FGFR3) [nM] | Kd (FGFR4) [nM] | SMILES | IC50 (BCR-FGFR1 Ba/F3) [nM] | IC50 (FGFR3-BAIAP2L1 Ba/F3) [nM]
0.1 to 100 | 0.1 to 100 | 0.1 to 100 | 0.1 to 100 | C[C@@H](Oc1ccc2[nH]nc(-c3ccc(N)nc3)c2c1)c1c(Cl)cncc1Cl [Example 8, (R)-5-(5-(1-(3,5-Dichloropyridin-4-yl)ethoxy)-1H-indazol-3-yl)pyridin-2-amine] | 0.1 to 100 | 0.1 to 100
0.1 to 100 | 0.1 to 100 | 0.1 to 100 | 0.1 to 100 | CNC(=O)c1ccc(-c2n[nH]c3ccc(O[C@H](C)c4c(Cl)cncc4Cl)cc23)cn1 [Example 9, (R)-5-(5-(1-(3,5-Dichloropyridin-4-yl)ethoxy)-1H-indazol-3-yl)-N-methylpicolinamide] | 100 to 250 | 0.1 to 100
0.1 to 100 | 0.1 to 100 | 0.1 to 100 | 0.1 to 100 | C[C@@H](Oc1ccc2[nH]nc(-c3ccc(NC(=O)CN(C)C)nc3)c2c1)c1c(Cl)cncc1Cl [Example 13, N-[5-[5-[(1R)-1-(3,5-dichloro-4-pyridyl)ethoxy]-1H-indazol-3-yl]-2-pyridyl]-2-(dimethylamino)-acetamide] | 0.1 to 100 | 0.1 to 100
0.1 to 100 | 0.1 to 100 | 0.1 to 100 | 0.1 to 100 | C[C@@H](Oc1ccc2[nH]nc(-c3ccc(NC(=O)N4CCOCC4)nc3)c2c1)c1c(Cl)cncc1Cl [Example 16, N-[5-[5-[(1R)-1-(3,5-dichloro-4-pyridyl)ethoxy]-1H-indazol-3-yl]-2-pyridyl]morpholine-4-carboxamide] | 0.1 to 100 | 0.1 to 100
0.1 to 100 | 0.1 to 100 | 0.1 to 100 | 0.1 to 100 | C[C@@H](Oc1ccc2[nH]nc(-c3ccc4c(c3)C(=O)CC3(CCNCC3)O4)c2c1)c1c(Cl)cncc1Cl [Example 92, (R)-6-(5-(1-(3,5-Dichloropyridin-4-yl)ethoxy)-1H-indazol-3-yl)spiro[chromane-2,4′-piperidin]-4-one] | 250 to 1000 | 0.1 to 100
0.1 to 100 | 0.1 to 100 | 0.1 to 100 | 0.1 to 100 | CCN1CCC2(CC1)CC(=O)c1cc(-c3n[nH]c4ccc(O[C@H](C)c5c(Cl)cncc5Cl)cc34)ccc1O2 [Example 95, (R)-6-(5-(1-(3,5-Dichloropyridin-4-yl)ethoxy)-1H-indazol-3-yl)-1′-ethylspiro[chromane-2,4′-piperidin]-4-one] | 100 to 250 | 0.1 to 100
